Test results published in US10941147B2, “Bicyclic heteroaryl derivatives” (Hoffmann-La Roche Inc., priority 2016, dated 2021).

Molecular target: T1, γ-secretase (Homo sapiens, UniProt P49768)
T1 construct: Human neuroglioma H4 cells overexpressing human APP695; endogenous in cells; host or cells: human neuroglioma H4 cells stably overexpressing human APP695 Swedish
Assay: Cellular γ-secretase assay (inhibition of Aβ42 secretion, AlphaLisa)
Type: cell-based
Conditions: Human neuroglioma H4 cells overexpressing human APP695 Swedish double mutation; 24 hr compound incubation; secreted Aβ42 in supernatant
Description: Description of γ-Secretase Assay
Cellular γ-Secretase Assay
Human neuroglioma H4 cells overexpressing human APP695 with the Swedish double mutation (K595N/M596L) were plated at 30,000 cells/well/100 al in 96-well plates in IMDM media containing 10% FCS, […] Hygromycin B and incubated at 37° C., 5% CO2.
3-4 hr post plating, compounds are a diluted in media and 50 μl is added as 1.5-fold concentrate to achieve the final concentration. Compound incubation is performed for 24 hr. Final doses typically range from 4 μM down to 0.0013 μM in half-log steps resulting in a eight point dose response curve.
Appropriate controls using vehicle only and reference compound were applied to this assay. The final concentration of Me2SO was 0.4%.
After incubation at 37° C., 5% CO2, the supernatant was subjected to quantification of secreted Aβ42 by the means of an AlphaLisa assay kit (Human Amyloid beta 1-42 Kit: Cat #AL203C, Perkin Elmer). 20 μl of the cell culture supernatant was transferred to an assay plate. Then 10 μl of a mixture of the AlphaLisa coupled capture antibody and the biotinylated detection antibody was added and incubated for 3 hours at room temperature while softly shaking the assay plate. After a further addition of 20 μl of the Donor beads the assay plate was incubated for 30 min at room temperature and constant shaking without exposure to direct light. The assay plate was then read on a Paradigm AlphaLisa Reader using the build-in program with excitation at 680 nm and emission at […].
The measured signals were then used to calculate IC50 values for inhibition of Aβ42 secretion by nonlinear regression fit analysis using XLfit 5.3 software (IDBS).

| SMILES | EC50 [nM] |
| --- | --- |
| FC(F)(F)c1cc(N2C[C@H]3CC[C@@H](C2)[C@@H]3Nc2nc3n(n2)CCCCC3c2ccc(Cl)cc2)ccn1 (stereo partly drawn) [Example 6, 9-(4-chlorophenyl)-N-[(1R,5S,8S)-3-[2-(trifluoromethyl)-4-pyridyl]-3-azabicyclo[3.2.1]octan-8-yl]-6,7,8,9-tetrahydro-5H-[1,2,4]triazolo[1,5-a]azepin-2-amine] | 50.6 |
| FC(F)(F)c1cccc(C2CCCCn3nc(N[C@@H]4[C@@H]5CC[C@H]4CN(c4ccnc(C(F)(F)F)c4)C5)nc32)c1 (stereo partly drawn) [Example 10, 9-[3-(trifluoromethyl)phenyl]-N-[(1R,5S,8S)-3-[2-(trifluoromethyl)-4-pyridyl]-3-azabicyclo[3.2.1]octan-8-yl]-6,7,8,9-tetrahydro-5H-[1,2,4]triazolo[1,5-a]azepin-2-amine] | 33.7 |
| Cc1cc(N2C[C@H]3CC[C@@H](C2)[C@@H]3Nc2nc3n(n2)CCCC[C@H]3c2ccc(C(F)(F)F)cc2)ncn1 [Example 4, (9S)—N-[(1R,5S)-3-(6-methylpyrimidin-4-yl)-3-azabicyclo[3.2.1]octan-8-yl]-9-[4-(trifluoromethyl)phenyl]-6,7,8,9-tetrahydro-5H-[1,2,4]triazolo[1,5-a]azepin-2-amine] | 37.4 |
| Cc1cc(N2C[C@H]3CC[C@@H](C2)[C@@H]3Nc2nc3n(n2)CCCCC3c2cccc(C(F)(F)F)c2)ncn1 (mixture of isomers) [Example 11, N-[(1R,5S,8S)-3-(6-methylpyrimidin-4-yl)-3-azabicyclo[3.2.1]octan-8-yl]-9-[3-(trifluoromethyl)phenyl]-6,7,8,9-tetrahydro-5H-[1,2,4]triazolo[1,5-a]azepin-2-amine] | 28 |
| Cc1cc(N2C[C@H]3CC[C@@H](C2)[C@@H]3Nc2nc3n(n2)CCCC[C@@H]3c2ccc(Cl)cc2)ncn1 [Example 9, (9R)-9-(4-chlorophenyl)-N-[(1R,5S,8S)-3-(6-methylpyrimidin-4-yl)-3-azabicyclo[3.2.1]octan-8-yl]-6,7,8,9-tetrahydro-5H-[1,2,4]triazolo[1,5-a]azepin-2-amine] | 48.9 |
| Cc1cc(N2C[C@H]3CC[C@@H](C2)C3Nc2nc3n(n2)CCCC[C@@H]3c2ccc(C(F)(F)F)cc2)ncn1 (stereo partly drawn) [Example 5, (9R)—N-[(1R,5S)-3-(6-methylpyrimidin-4-yl)-3-azabicyclo[3.2.1]octan-8-yl]-9-[4-(trifluoromethyl)phenyl]-6,7,8,9-tetrahydro-5H-[1,2,4]triazolo[1,5-a]azepin-2-amine] | 11.6 |
| Cc1cc(N2C[C@H]3CC[C@@H](C2)[C@@H]3Nc2nc3n(n2)CCCCC3c2ccc(F)c(F)c2F)ncn1 (mixture of isomers) [Example 14, N-[(1R,5S,8S)-3-(6-methylpyrimidin-4-yl)-3-azabicyclo[3.2.1]octan-8-yl]-9-(2,3,4-trifluorophenyl)-6,7,8,9-tetrahydro-5H-[1,2,4]triazolo[1,5-a]azepin-2-amine] | 12.6 |
| Cc1cc(N2C[C@H]3CC[C@@H](C2)[C@@H]3Nc2nc3n(n2)CCCC[C@H]3c2ccc(Cl)cc2)ncn1 [Example 8, (9S)-9-(4-chlorophenyl)-N-[(1R,5S,8S)-3-(6-methylpyrimidin-4-yl)-3-azabicyclo[3.2.1]octan-8-yl]-6,7,8,9-tetrahydro-5H-[1,2,4]triazolo[1,5-a]azepin-2-amine] | 31.9 |
| Cc1cc(N2C[C@H]3CC[C@@H](C2)[C@@H]3Nc2nc3n(n2)CCCCC3c2ccc(C(F)(F)F)cc2)ncn1 (mixture of isomers) [Example 3, N-[(1R,5S,8S)-3-(6-methylpyrimidin-4-yl)-3-azabicyclo[3.2.1]octan-8-yl]-9-[4-(trifluoromethyl)phenyl]-6,7,8,9-tetrahydro-5H-[1,2,4]triazolo[1,5-a]azepin-2-amine] | 20.6 |
| Cc1cc(N2C[C@H]3CC[C@@H](C2)[C@@H]3Nc2nc3n(n2)CCCC[C@H]3c2cccc(C(F)(F)F)c2)ncn1 [Example 12, (9S)—N-[(1R,5S,8S)-3-(6-methylpyrimidin-4-yl)-3-azabicyclo[3.2.1]octan-8-yl]-9-[3-(trifluoromethyl)phenyl]-6,7,8,9-tetrahydro-5H-[1,2,4]triazolo[1,5-a]azepin-2-amine] | 14.9 |
| FC(F)(F)c1ccc(C2CCCCn3nc(N[C@@H]4[C@@H]5CC[C@H]4CN(c4ccnc(C(F)(F)F)c4)C5)nc32)cc1 (stereo partly drawn) [Example 2, 9-[4-(trifluoromethyl)phenyl]-N-[(1R,5S,8S)-3-[2-(trifluoromethyl)-4-pyridyl]-3-azabicyclo[3.2.1]octan-8-yl]-6,7,8,9-tetrahydro-5H-[1,2,4]triazolo[1,5-a]azepin-2-amine] | 48.4 |
| Cc1cc(N2C[C@H]3CC[C@@H](C2)[C@@H]3Nc2nc3n(n2)CCCCC3c2ccc(Cl)cc2)ncn1 (mixture of isomers) [Example 7, 9-(4-chlorophenyl)-N-[(1R,5S,8S)-3-(6-methylpyrimidin-4-yl)-3-azabicyclo[3.2.1]octan-8-yl]-6,7,8,9-tetrahydro-5H-[1,2,4]triazolo[1,5-a]azepin-2-amine] | 23.4 |
| Cc1cc(N2C[C@H]3CC[C@@H](C2)[C@@H]3Nc2nc3n(n2)CCCC[C@@H]3c2cccc(C(F)(F)F)c2)ncn1 [Example 13, (9R)—N-[(1R,5S,8S)-3-(6-methylpyrimidin-4-yl)-3-azabicyclo[3.2.1]octan-8-yl]-9-[3-(trifluoromethyl)phenyl]-6,7,8,9-tetrahydro-5H-[1,2,4]triazolo[1,5-a]azepin-2-amine] | 15 |
| Fc1ccc(C2CCCCn3nc(N[C@@H]4[C@@H]5CC[C@H]4CN(c4ccnc(C(F)(F)F)c4)C5)nc32)c(F)c1F (stereo partly drawn) [Example 1, N-[(1R,5S,8S)-3-[2-(trifluoromethyl)-4-pyridyl]-3-azabicyclo[3.2.1]octan-8-yl]-9-(2,3,4-trifluorophenyl)-6,7,8,9-tetrahydro-5H-[1,2,4]triazolo[1,5-a]azepin-2-amine] | 34.6 |

Further lines, results first:

| EC50 [nM] | SMILES |
| --- | --- |
| 12.5 | Fc1ccc([C@H]2CCCCn3nc(N[C@@H]4[C@@H]5CC[C@H]4CN(c4cc(Cl)ncn4)C5)nc32)c(F)c1F [Example 19, (9R)—N-[(1R,5S,8S)-3-(6-chloropyrimidin-4-yl)-3-azabicyclo[3.2.1]octan-8-yl]-9-(2,3,4-trifluorophenyl)-6,7,8,9-tetrahydro-5H-[1,2,4]triazolo[1,5-a]azepin-2-amine] |
| 12.4 | Fc1ccc([C@@H]2CCCCn3nc(N[C@@H]4[C@@H]5CC[C@H]4CN(c4cc(Cl)ncn4)C5)nc32)c(F)c1F [Example 18, (9S)—N-[(1R,5S,8S)-3-(6-chloropyrimidin-4-yl)-3-azabicyclo[3.2.1]octan-8-yl]-9-(2,3,4-trifluorophenyl)-6,7,8,9-tetrahydro-5H-[1,2,4]triazolo[1,5-a]azepin-2-amine] |
| 53.4 | COc1cc(N2C[C@H]3CC[C@@H](C2)[C@@H]3Nc2nc3n(n2)CCCCC3c2ccc(F)c(F)c2F)ncn1 (stereo partly drawn) [Example 21, N-[(1R,5S,8S)-3-(6-methoxypyrimidin-4-yl)-3-azabicyclo[3.2.1]octan-8-yl]-9-(2,3,4-trifluorophenyl)-6,7,8,9-tetrahydro-5H-[1,2,4]triazolo[1,5-a]azepin-2-amine] |
| 8.4 | Cc1cc(N2C[C@H]3CC[C@@H](C2)[C@@H]3Nc2nc3n(n2)CCCC[C@H]3c2ccc(F)c(F)c2F)ncn1 [Example 15, (9S)—N-[(1R,5S,8S)-3-(6-methylpyrimidin-4-yl)-3-azabicyclo[3.2.1]octan-8-yl]-9-(2,3,4-trifluorophenyl)-6,7,8,9-tetrahydro-5H-[1,2,4]triazolo[1,5-a]azepin-2-amine] |
| 17.7 | Fc1ccc(C2CCCCn3nc(N[C@@H]4[C@@H]5CC[C@H]4CN(c4cc(Cl)ncn4)C5)nc32)c(F)c1F (mixture of isomers) [Example 17, N-[(1R,5S,8S)-3-(6-chloropyrimidin-4-yl)-3-azabicyclo[3.2.1]octan-8-yl]-9-(2,3,4-trifluorophenyl)-6,7,8,9-tetrahydro-5H-[1,2,4]triazolo[1,5-a]azepin-2-amine] |
| 7.1 | Cc1cc(N2C[C@H]3CC[C@@H](C2)[C@@H]3Nc2nc3n(n2)CCCC[C@@H]3c2ccc(F)c(F)c2F)ncn1 [Example 16, (9R)—N-[(1R,5S,8S)-3-(6-methylpyrimidin-4-yl)-3-azabicyclo[3.2.1]octan-8-yl]-9-(2,3,4-trifluorophenyl)-6,7,8,9-tetrahydro-5H-[1,2,4]triazolo[1,5-a]azepin-2-amine] |
| 8.5 | COc1cc(N2C[C@H]3CC[C@@H](C2)[C@@H]3Nc2nc3n(n2)CCCCC3c2ccc(F)c(F)c2F)ccn1 (stereo partly drawn) [Example 20, N-[(1R,5S,8S)-3-(2-methoxy-4-pyridyl)-3-azabicyclo[3.2.1]octan-8-yl]-9-(2,3,4-trifluorophenyl)-6,7,8,9-tetrahydro-5H-[1,2,4]triazolo[1,5-a]azepin-2-amine] |
| 30.3 | Cc1ncnc(N2C[C@H]3CC[C@@H](C2)[C@@H]3Nc2nc3n(n2)CCCCC3c2ccc(F)c(F)c2F)c1F (stereo partly drawn) [Example 22, N-[(1R,5S,8S)-3-(5-fluoro-6-methyl-pyrimidin-4-yl)-3-azabicyclo[3.2.1]octan-8-yl]-9-(2,3,4-trifluorophenyl)-6,7,8,9-tetrahydro-5H-[1,2,4]triazolo[1,5-a]azepin-2-amine] |
